Assay results: ChEMBL document CHEMBL6182944, “Substrate Specificity of the Organic Cation Transporters MATE1 and MATE2K and Functional Overlap with OCT1 and OCT2” (J Med Chem, 2025)

Columns and labels:
MATE1 = molecular target: T1, MATE1 (Homo sapiens, UniProt Q96FL8); assay: in vitro
T1 sequence (Q96FL8 whole entry): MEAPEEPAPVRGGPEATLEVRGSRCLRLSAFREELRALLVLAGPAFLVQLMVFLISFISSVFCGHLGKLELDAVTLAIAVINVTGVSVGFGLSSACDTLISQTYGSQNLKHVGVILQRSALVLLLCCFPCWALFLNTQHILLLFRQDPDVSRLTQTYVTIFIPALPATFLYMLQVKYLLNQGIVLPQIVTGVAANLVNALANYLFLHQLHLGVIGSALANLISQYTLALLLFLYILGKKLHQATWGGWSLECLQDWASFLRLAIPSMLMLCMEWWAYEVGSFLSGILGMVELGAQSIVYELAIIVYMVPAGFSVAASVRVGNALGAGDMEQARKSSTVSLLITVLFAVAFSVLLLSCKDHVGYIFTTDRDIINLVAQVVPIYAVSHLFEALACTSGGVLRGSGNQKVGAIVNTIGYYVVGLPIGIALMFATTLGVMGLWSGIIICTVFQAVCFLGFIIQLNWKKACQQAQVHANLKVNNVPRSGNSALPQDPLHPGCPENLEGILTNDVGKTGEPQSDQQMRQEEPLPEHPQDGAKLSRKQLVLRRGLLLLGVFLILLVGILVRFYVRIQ

MATE2-K = molecular target: T2, MATE2-K (Homo sapiens, UniProt Q86VL8); assay: in vitro
T2 sequence (Q86VL8 whole entry): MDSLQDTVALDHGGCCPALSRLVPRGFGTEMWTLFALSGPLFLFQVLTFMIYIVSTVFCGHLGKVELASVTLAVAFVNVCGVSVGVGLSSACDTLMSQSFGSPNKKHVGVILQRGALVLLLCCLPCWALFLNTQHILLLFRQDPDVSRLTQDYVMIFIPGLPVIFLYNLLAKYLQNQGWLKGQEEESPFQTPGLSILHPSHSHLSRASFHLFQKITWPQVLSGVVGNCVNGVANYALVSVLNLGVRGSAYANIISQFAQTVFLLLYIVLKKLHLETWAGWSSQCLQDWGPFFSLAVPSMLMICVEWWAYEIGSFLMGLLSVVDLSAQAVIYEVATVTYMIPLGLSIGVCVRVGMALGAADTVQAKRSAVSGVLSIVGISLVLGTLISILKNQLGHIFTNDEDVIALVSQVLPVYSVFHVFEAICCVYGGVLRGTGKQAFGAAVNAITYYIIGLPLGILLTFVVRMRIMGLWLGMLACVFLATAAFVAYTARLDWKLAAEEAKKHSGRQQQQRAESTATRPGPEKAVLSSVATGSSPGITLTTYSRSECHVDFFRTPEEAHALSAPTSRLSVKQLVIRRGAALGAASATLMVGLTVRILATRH

[1] = molecular target: T3, Multidrug and toxin extrusion protein 1 (Homo sapiens, UniProt Q96FL8); assay: Substrate activity at MATE1 (unknown origin) expressed in HEK293 cells assessed as Vmax (maximum transport velocity) by HPLC-MS/MS analysis; assay type: cell-based
T3 sequence (Q96FL8 whole entry): T1 sequence (Q96FL8 whole entry)

[2] = molecular target: T3, Multidrug and toxin extrusion protein 1; assay: Substrate activity at MATE1 (unknown origin) expressed in HEK293 cells assessed as intrinsic clearance by measuring ratio of Vmax (maximum transport velocity) over Km measured per mg of protein by HPLC-MS/MS analysis; assay type: cell-based
[3] = molecular target: T4, Multidrug and toxin extrusion protein 2 (Homo sapiens, UniProt Q86VL8); assay: Substrate activity at MATE2-K (unknown origin) expressed in HEK293 cells assessed as intrinsic clearance by measuring ratio of Vmax (maximum transport velocity) over Km measured per mg of protein by HPLC-MS/MS analysis; assay type: cell-based
T4 sequence (Q86VL8 whole entry): T2 sequence (Q86VL8 whole entry)

[4] = HEK293 cells expressing MATE2-K

With CC(=O)Nc1ccc(OCC(O)CNC(C)C)cc1 (stereo unspecified) [PRACTOLOL] the uptake ratio at 1 min, 2.5 µM (MATE1; hek293) was > 2 and the uptake ratio at 1 min, 2.5 µM (MATE2-K; hek293) was > 2.

For [H]/N=C(\N/C(=N/[H])Nc1ccc(Cl)cc1)NC(C)C [PROGUANIL], the uptake ratio at 1 min, 2.5 µM (MATE1; HEK293 cells expressing MATE1) was > 2 and the uptake ratio at 1 min, 2.5 µM (MATE2-K; [4]) was > 2.

For CC(C)[N+](C)(CCOC(=O)C1c2ccccc2Oc2ccccc21)C(C)C [PROPANTHELINE], the uptake ratio at 1 min, 2.5 µM (MATE1; HEK293 cells expressing MATE1) was > 2 and the uptake ratio at 1 min, 2.5 µM (MATE2-K; [4]) was > 2.

NCCCCN [PUTRESCINE] was tested, and the uptake ratio at 1 min, 2.5 µM (MATE1; hek293) was < 2 and the uptake ratio at 1 min, 2.5 µM (MATE2-K; hek293) was < 2.

For Cc1ncc(CO)c(CO)c1O [PYRIDOXINE], the uptake ratio at 1 min, 2.5 µM (MATE1; hek293) was > 2, the Vmax [1] was 10014 pmol/min and the uptake ratio at 1 min, 2.5 µM (MATE2-K; hek293) was < 2. For the same compound, the CL [2] was 2.37 µL/min and the CL [3] was 1.2 µL/min.

CNC(=C[N+](=O)[O-])NCCSCc1ccc(CN(C)C)o1 [RANITIDINE] was tested, and the uptake ratio at 1 min, 2.5 µM (MATE1; hek293) was > 2 and the uptake ratio at 1 min, 2.5 µM (MATE2-K; hek293) was > 2.

Compound C#CCN[C@@H]1CCc2ccccc21 [RASAGILINE] has a Vmax [1] of 194 pmol/min.

For CN(C)CCc1c[nH]c2ccc(Cn3cncn3)cc12 [RIZATRIPTAN], the uptake ratio at 1 min, 2.5 µM (MATE1; HEK293 cells expressing MATE1) was > 2 and the uptake ratio at 1 min, 2.5 µM (MATE2-K; [4]) was > 2.

With CNCc1ccc(-c2[nH]c3cc(F)cc4c3c2CCNC4=O)cc1 [RUCAPARIB] the uptake ratio at 1 min, 2.5 µM (MATE1; HEK293 cells expressing MATE1) was > 2 and the uptake ratio at 1 min, 2.5 µM (MATE2-K; [4]) was > 2.

In the case of CCN(CC)CCNC(=O)c1ccc(NS(C)(=O)=O)cc1 [SEMATILIDE], the uptake ratio at 1 min, 2.5 µM (MATE1; HEK293 cells expressing MATE1) is reported as > 2 and the uptake ratio at 1 min, 2.5 µM (MATE2-K; [4]) is reported as > 2.

For NCCc1c[nH]c2ccc(O)cc12 [SEROTONIN], the uptake ratio at 1 min, 2.5 µM (MATE1; HEK293 cells expressing MATE1) was > 2 and the uptake ratio at 1 min, 2.5 µM (MATE2-K; [4]) was > 2.

With N[C@@H](CC(=O)N1CCn2c(nnc2C(F)(F)F)C1)Cc1cc(F)c(F)cc1F [SITAGLIPTIN] the uptake ratio at 1 min, 2.5 µM (MATE1; HEK293 cells expressing MATE1) was > 2 and the uptake ratio at 1 min, 2.5 µM (MATE2-K; [4]) was > 2.

CC(C)NCC(O)c1ccc(NS(C)(=O)=O)cc1 (stereo unspecified) [SOTALOL] was tested, and the uptake ratio at 1 min, 2.5 µM (MATE1; HEK293 cells expressing MATE1) was > 2 and the uptake ratio at 1 min, 2.5 µM (MATE2-K; [4]) was < 2.

For NCCCCNCCCN [SPERMIDINE], the uptake ratio at 1 min, 2.5 µM (MATE1; HEK293 cells expressing MATE1) was < 2 and the uptake ratio at 1 min, 2.5 µM (MATE2-K; [4]) was < 2.

In the case of NCCCNCCCCNCCCN [SPERMINE], the uptake ratio at 1 min, 2.5 µM (MATE1; hek293) is reported as < 2 and the uptake ratio at 1 min, 2.5 µM (MATE2-K; hek293) is reported as < 2.

Cn1nnc2c(C(N)=O)ncn2c1=O [TEMOZOLOMIDE] was tested, and the uptake ratio at 1 min, 2.5 µM (MATE1; HEK293 cells expressing MATE1) was < 2 and the uptake ratio at 1 min, 2.5 µM (MATE2-K; [4]) was < 2.

With CC(C)(C)NCC(O)c1cc(O)cc(O)c1 (stereo unspecified) [TERBUTALINE] the uptake ratio at 1 min, 2.5 µM (MATE1; HEK293 cells expressing MATE1) was > 2 and the uptake ratio at 1 min, 2.5 µM (MATE2-K; [4]) was > 2.

CC[C@@]1(O)C(=O)OCc2c1cc1n(c2=O)Cc2cc3c(CN(C)C)c(O)ccc3nc2-1 [TOPOTECAN] was tested, and the uptake ratio at 1 min, 2.5 µM (MATE1; HEK293 cells expressing MATE1) was > 2 and the uptake ratio at 1 min, 2.5 µM (MATE2-K; [4]) was > 2.

In the case of O=C(O[C@H]1C[C@H]2CC[C@@H](C1)[N+]21CCCC1)C(O)(c1ccccc1)c1ccccc1 [TROSPIUM], the uptake ratio at 1 min, 2.5 µM (MATE1; HEK293 cells expressing MATE1) is reported as > 2 and the uptake ratio at 1 min, 2.5 µM (MATE2-K; [4]) is reported as < 2.

For C=CCN1CCCC1CNC(=O)c1cc(S(N)(=O)=O)cc(OC)c1OC (stereo unspecified) [VERALIPRIDE], the uptake ratio at 1 min, 2.5 µM (MATE1; HEK293 cells expressing MATE1) was > 2 and the uptake ratio at 1 min, 2.5 µM (MATE2-K; [4]) was > 2.

With O=C(NCCNCC(O)COc1ccc(O)cc1)N1CCOCC1 (stereo unspecified) [XAMOTEROL] the uptake ratio at 1 min, 2.5 µM (MATE1; HEK293 cells expressing MATE1) was > 2 and the uptake ratio at 1 min, 2.5 µM (MATE2-K; [4]) was > 2.

In the case of Nc1ccn([C@H]2CC[C@@H](CO)O2)c(=O)n1 [ZALCITABINE], the Vmax [1] is reported as 10171 pmol/min and the CL [2] is reported as 6.53 µL/min.

O=c1ncccn1[C@@H]1O[C@H](CO)[C@@H](O)[C@H]1O [ZEBULARINE] was tested, and the uptake ratio at 1 min, 2.5 µM (MATE1; HEK293 cells expressing MATE1) was < 2 and the uptake ratio at 1 min, 2.5 µM (MATE2-K; [4]) was < 2.

CN(C)CCc1c[nH]c2ccc(C[C@H]3COC(=O)N3)cc12 [ZOLMITRIPTAN] was tested, and the Vmax [1] was 2992 pmol/min, the CL [2] was 65.2 µL/min and the CL [3] was 17.6 µL/min.
